From the PolyMetriX glass transition set
± gives the standard deviation of the reports.

For `*c1ccc(-c2ccc(-c3ccc(-c4ccc([Si](*)(CCCC)CCCC)s4)s3)s2)s1` (repeat unit), the glass transition temperature was 1.00 °C.
`*C(=O)Oc1ccc(OCCCCCCCCCCCCOc2ccc(OC(=O)c3ccc4c(c3)C(=O)N(c3ccc(Cc5ccc(N6C(=O)c7ccc(*)cc7C6=O)cc5)cc3)C4=O)cc2)cc1` (repeat unit) showed a glass transition temperature of 125.00 °C.
With `*/C=C/c1cc(OCCCC)c(*)cc1OC` (repeat unit) the glass transition temperature was 65.00 °C.
In the case of `*Oc1cc2ccccc2cc1OC(=O)c1ccc(Oc2ccc(C(*)=O)cc2)cc1` (repeat unit), the glass transition temperature is reported as 148.00 °C.
Work on `*c1nc2cc(S(=O)(=O)c3ccc4oc(C5CCC(*)CC5)nc4c3)ccc2o1` (repeat unit) yielded a glass transition temperature of 296.00 °C.
With `*CCCCCCCCC(Cl)C(*)Cl` (repeat unit) the glass transition temperature was -30.00 °C.
Compound `*Nc1ccc(NC(=O)CCCCCC(*)=O)cc1` (repeat unit) has a glass transition temperature of 133.00 °C.
`*N=P(N=P(/N=S(/*)Oc1ccc(C(C)(C)C)cc1)(Oc1ccc(-c2ccccc2)cc1)Oc1ccc(-c2ccccc2)cc1)(Oc1ccc(-c2ccccc2)cc1)Oc1ccc(-c2ccccc2)cc1` (repeat unit) gave a glass transition temperature of 54.00 °C.
`*/C=C/c1ccc(-c2nnc(-c3ccc(/C=C/c4ccc5c(c4)c4cc(*)ccc4n5CCCCCCCC)cc3)n2-c2ccccc2)cc1` (repeat unit) gave a glass transition temperature of 147.00 °C.
Work on `*c1ccc(-c2ccc(-c3cc(-c4ccccc4)c4cc(-c5ccc6nc(*)cc(-c7ccccc7)c6c5)ccc4n3)cc2)cc1` (repeat unit) yielded a glass transition temperature of 360.00 °C.
`*Oc1ccc(Nc2ccc(C(=O)c3ccc(C(=O)c4ccc(Nc5ccc(*)cc5)cc4)cc3)cc2)cc1` (repeat unit) showed a glass transition temperature of 215.00 °C.
With `*OP(=O)(Oc1ccc(Br)cc1)OC(CCl)COc1ccc(S(=O)(=O)c2ccc(OCC(*)CCl)cc2)cc1` (repeat unit) the glass transition temperature was 58.00 °C.
With `*Oc1ccc(NC(=C(C#N)C#N)c2ccc(-c3ccc(-c4ccc(C(Nc5ccc(*)cc5)=C(C#N)C#N)cc4)cc3)cc2)cc1` (repeat unit) the glass transition temperature was 240.00 °C.
Compound `*CC(=O)NCCCCCCNC(=O)COC(=O)CCCCCCCCC(=O)O*` (repeat unit) has a glass transition temperature of 2.00 °C.
`*CC(*)c1cccc(Br)c1` (repeat unit) gave a glass transition temperature of 102.00 °C.
In the case of `*CC(*)C(=O)NC(C)(C)C` (repeat unit) [Poly(N-tert-butyl acrylamide)], the glass transition temperature is reported as 131.42 ± 5.1 °C.
In the case of `*O[Si](C)(CCC(F)(F)F)CCC(F)(F)C(F)(F)C(F)(F)C(F)(F)C(F)(F)C(F)(F)C(F)(F)C(F)(F)C(F)(F)C(F)(F)CC[Si](*)(C)CCC(F)(F)F` (repeat unit), the glass transition temperature is reported as -11.00 °C.
Work on `*CCCCCCOC(=O)CCCCC(=O)O*` (repeat unit) yielded a glass transition temperature of -69.00 °C.
For `*CCCCOC(=O)c1cccc(C(=O)O*)c1` (repeat unit) [Poly(tetramethylene isophthalate)], the glass transition temperature was 21.42 ± 3.4 °C.
With `*CC(*)OC(=O)C(C)(C)CCC` (repeat unit) the glass transition temperature was 10.00 °C.
Work on `*CCCCCCCCCNC(=O)CCCCC(=O)N*` (repeat unit) yielded a glass transition temperature of 68.00 °C.
With `*c1ccc(-c2cc(CCCCCC)c(-c3ccc(-c4ccc5ccc6ccc(*)nc6c5n4)cc3)cc2CCCCCC)cc1` (repeat unit) the glass transition temperature was 190.00 °C.
`*CCCP(C)(=O)CCCNC(=O)CCCCC(=O)N*` (repeat unit) showed a glass transition temperature of 33.00 °C.
With `*Oc1ccc(OC(=O)c2cc(OCCCCOCC3CCCN3c3ccc([N+](=O)[O-])cc3)c(C(*)=O)cc2OCCCCOCC2CCCN2c2ccc([N+](=O)[O-])cc2)cc1` (repeat unit) the glass transition temperature was 68.00 °C.
Compound `*NC1CCC(CC2CCC(NC(=O)CCCCCCCCC(*)=O)CC2)CC1` (repeat unit) has a glass transition temperature of 144.00 °C.
Compound `*OS(=O)(=O)c1cccc(S(=O)(=O)Oc2ccc(C(C)(CC)c3ccc(*)cc3)cc2)c1` (repeat unit) has a glass transition temperature of 147.00 °C.
Work on `*C(=O)c1cccc(C(=O)c2ccc3c(c2)C(=O)N(c2ccc(C(c4ccc(N5C(=O)c6ccc(*)cc6C5=O)cc4)(C(F)(F)F)C(F)(F)F)cc2)C3=O)c1` (repeat unit) yielded a glass transition temperature of 262.50 °C.
For `*[Si](*)(CCCCCC)c1ccccc1` (repeat unit), the glass transition temperature was -70.00 °C.
Work on `*CCN(*)C(=O)c1cc(F)ccc1F` (repeat unit) yielded a glass transition temperature of 112.00 °C.
For `*Oc1ccc(Oc2ccc(P(=O)(c3ccccc3)c3ccc(Oc4ccc(Oc5cccc(*)n5)cc4)cc3)cc2)cc1` (repeat unit), the glass transition temperature was 164.00 °C.
`*CC/C=C/C[Si](*)(C)c1ccccc1` (repeat unit) gave a glass transition temperature of -14.90 °C.
In the case of `*Oc1ccc(Oc2ccc(OC(=O)c3cc(OCCCCC)cc(C(*)=O)c3)cc2)cc1` (repeat unit), the glass transition temperature is reported as 126.00 °C.
For `*c1ccc(Cc2ccc(N3C(=O)c4ccc(Sc5ccc6c(c5)C(=O)N(*)C6=O)cc4C3=O)c(C(C)(C)C)c2)cc1C(C)(C)C` (repeat unit), the glass transition temperature was 300.50 °C.
In the case of `*CCCC(C)(C)CNC(=O)CCCCC(=O)N*` (repeat unit), the glass transition temperature is reported as 77.00 °C.
Work on `*CC(COC(F)(C(F)(F)F)C(F)(F)F)O*` (repeat unit) yielded a glass transition temperature of -43.00 °C.
For `*CC(*)(C)C(=O)OCCS(=O)(=O)c1ccc(/N=N/c2ccc(N(CC)CC)cc2)cc1` (repeat unit), the glass transition temperature was 142.00 °C.
`*CCCCOC(=O)Nc1ccc(-c2ccc(NC(=O)OCCCCn3c4ccccc4c4cc(/C=C(\C#N)C(=O)OCCCCCCOC(=O)/C(C#N)=C/c5ccc6c(c5)c5ccccc5n6*)ccc43)c(C)c2)cc1C` (repeat unit) gave a glass transition temperature of 113.00 °C.
In the case of `*CCOC(=O)c1ccc(C(=O)O*)cc1` (repeat unit) [Poly(ethylene terephthalate)], the glass transition temperature is reported as 75 ± 3.5 °C.
In the case of `*CC(c1ccccc1)C1C(=O)N(CCCOc2ccc(-c3ccc(C#N)cc3)cc2)C(=O)C1*` (repeat unit), the glass transition temperature is reported as 130.00 °C.
For `*CCCCCCCCCCNC(=O)CCCCCCCCCCC(=O)N*` (repeat unit), the glass transition temperature was 49.00 °C.
For `*c1ccc(Oc2cccc(Oc3ccc(N4C(=O)c5ccc(Oc6ccc(S(=O)(=O)c7ccc(Oc8ccc9c(c8)C(=O)N(*)C9=O)cc7)cc6)cc5C4=O)cc3)c2)cc1` (repeat unit), the glass transition temperature was 219.00 °C.
Compound `*O[Si](C)(C)CCC/N=C1C=C/C(=N/CCC[Si](*)(C)C)c2c(O)ccc(O)c2\1` (repeat unit) has a glass transition temperature of 32.90 °C.
In the case of `*CCN(*)C(=O)c1cc(F)cc(F)c1` (repeat unit), the glass transition temperature is reported as 106.00 °C.
With `*C(=O)c1ccc(Oc2ccc(C(C)(C)c3ccc(Oc4ccc(C(=O)c5ccc6c(c5)C(=O)N(c5ccc(Oc7ccc(N8C(=O)c9ccc(*)cc9C8=O)cc7)cc5)C6=O)cc4)cc3)cc2)cc1` (repeat unit) the glass transition temperature was 217.00 °C.
With `*CC(*)(C)C(=O)O[Si](C)(C)C` (repeat unit) the glass transition temperature was 97.50 °C.
With `*/C=C/c1cccc(/C=C/[Si](C)(CCC(F)(F)F)c2cccc([Si](*)(C)CCC(F)(F)F)c2)c1` (repeat unit) the glass transition temperature was 9.50 °C.
In the case of `*c1ccc([Si](c2ccccc2)(c2ccccc2)c2ccc(-c3nnc(-c4cccc(-c5nnc(*)o5)n4)o3)cc2)cc1` (repeat unit), the glass transition temperature is reported as 265.00 °C.
`*C(=O)c1ccc2c(c1)C(=O)N(c1ccc(Oc3ccc(C(=O)c4ccc(Oc5ccc(C(=O)c6ccc(Oc7ccc(N8C(=O)c9ccc(*)cc9C8=O)cc7)cc6)cc5)cc4)cc3)cc1)C2=O` (repeat unit) gave a glass transition temperature of 215.00 °C.
`*OCCOC(=O)CCCC(=O)OCCOc1nc(-c2ccc(OC)cc2)nc(*)c1-c1ccc(OC)cc1` (repeat unit) showed a glass transition temperature of 57.00 °C.
Work on `*=Nc1ccc(Cc2ccc(NC(=*)CC)cc2)cc1` (repeat unit) yielded a glass transition temperature of 130.00 °C.
`*Oc1ccc(/N=C/CCC/C=N/c2ccc(OC(=O)NC3CC(C)(C)CC(C)(CNC(*)=O)C3)cc2)cc1` (repeat unit) gave a glass transition temperature of 66.00 °C.
Work on `*CC(*)C(=O)OCCCCCCSCC#N` (repeat unit) yielded a glass transition temperature of -59.00 °C.
`*c1ccc(-c2sc(-c3cc(SCCCC)c(*)s3)cc2SCCCC)cc1` (repeat unit) showed a glass transition temperature of 129.00 °C.
`*CC(*)c1ccc(C(C)C)cc1` (repeat unit) showed a glass transition temperature of 62.40 °C.
With `*c1cccc(N2C(=O)c3ccc(-c4ccc5c(c4)C(=O)N(*)C5=O)cc3C2=O)c1` (repeat unit) the glass transition temperature was 333.2 ± 39 °C.
Work on `*CC(*)c1ccc(COc2ccc(-c3ccc(-c4ccc(C)s4)c4nsnc34)cc2)cc1` (repeat unit) yielded a glass transition temperature of 130.00 °C.
In the case of `*CC(*)(C)CCC` (repeat unit), the glass transition temperature is reported as 27.00 °C.
With `*O[Si](*)(C)CCCCCCCCCCC(=O)Oc1ccc(-c2ccc(OC(=O)c3ccc(OCC(C)CC)cc3)cc2)cc1` (repeat unit) the glass transition temperature was 29.20 °C.
For `*CCN(CCOC(=O)Nc1ccc(C)c(NC(=O)O*)c1)c1ccccc1` (repeat unit), the glass transition temperature was 31.90 °C.
`*Oc1ccc(CC(NC(=O)CCc2ccc(OC(*)=O)cc2)C(=O)OCCCC)cc1` (repeat unit) gave a glass transition temperature of 67.00 °C.
`*c1cccc(N2C(=O)c3cccc(Oc4ccc(C(=O)c5ccc(Oc6cccc7c6C(=O)N(*)C7=O)cc5)cc4)c3C2=O)c1` (repeat unit) gave a glass transition temperature of 248.00 °C.
For `*c1cccc(C(c2cccc(N3C(=O)c4ccc(Oc5ccc6c(c5)C(=O)N(*)C6=O)cc4C3=O)c2)(C(F)(F)F)C(F)(F)F)c1` (repeat unit), the glass transition temperature was 224.50 °C.
`*c1ccc(-c2nnc(*)o2)c(OCCCCCCCCCC)c1` (repeat unit) showed a glass transition temperature of 165.00 °C.
Compound `*Oc1ccc(CC(NC(=O)CCc2ccc(OC(=O)CCC(C)CC(*)=O)cc2)C(=O)OCc2ccccc2)cc1` (repeat unit) has a glass transition temperature of 55.00 °C.
With `*C(C)C(*)C(=O)OC12CC3CC(CC(C3)C1)C2` (repeat unit) the glass transition temperature was 236.50 °C.
In the case of `*C(=O)Nc1cc(NC(=O)c2ccc3c(c2)C(=O)N(c2cccc(N4C(=O)c5ccc(*)cc5C4=O)c2)C3=O)cc(-c2nc3ccccc3[nH]2)c1` (repeat unit), the glass transition temperature is reported as 361.00 °C.
`*CC(*)c1cccc(F)c1` (repeat unit) gave a glass transition temperature of 86.00 °C.
`*c1ccc(C(=O)OCCCCCCCCOc2ccc(/C=C3\CC/C(=C\c4ccc(OCCCCCCCCOC(=O)c5ccc(-c6nnc(*)o6)cc5)cc4)C3=O)cc2)cc1` (repeat unit) showed a glass transition temperature of 99.00 °C.
